Results as given in patent publication US12310929B2, “Use of rasagiline for the treatment of restless legs syndrome” (TEVA PHARMACEUTICAL INDUSTRIES, LTD., priority 2006, dated 2025).
Read-outs that look alike come from different tables or passages of the source.

Experiments:
[1] = tested on: RLS subjects; conditions: for CGI-I Total Mean / CGI-I Total Median: scale 1-7, rasagiline 1 mg/day oral
Description: (§1) This was the first clinical study in which rasagiline was administered to RLS subjects. The dosage regimen of 1 mg/day rasagiline was chosen based on the optimal dosage regimen for the symptomatic treatment of PD. […] Therefore, in the event that a subject could not tolerate the 1 mg daily dose of rasagiline, a daily dose of 0.5 mg rasagiline was permitted. Rasagiline was administered orally as a tablet. Both the 1 mg and 0.5 mg rasagiline tablets were beveled round tablets, flat, white to off-white, scored on one side, plain on the other side. Teva Pharmaceutical Industries Ltd. was responsible for the manufacture and primary packaging of study medications according to current Good Manufacturing Practice (cGMP) principles and guidelines applicable to investigational medicinal products.
Subjects were scored on this scale at weeks 2, 4, and 8. The mean score at each of these time points was calculated as a secondary efficacy endpoint.

[2] = tested on: RLS subjects; conditions: VISIT WEEK 4, rasagiline 1 mg/day oral
Description: as §1
The Sleep Scale is a 12-item scale that provides a comprehensive view across almost all dimensions of sleep including daytime somnolence, sleep disturbance, sleep adequacy and sleep quantity. The investigator scored subjects on this scale at the baseline and Week 4, and 8 visits. The change from baseline to each post-baseline study visit was calculated as a secondary efficacy endpoint. (Hays, R. D. & Steward, A. L. (1992). Sleep measures. In A. L. Stewart & J. E. Ware (eds.), Measuring functioning and well-being: The Medical Outcomes Study approach (pp. 235-259), Durham, NC: Duke University Press.
N is the number of participants in the study. A low score indicates the absence of problems and a high score indicates a very severe problem.

Compound: C#CCN[C@@H]1CCc2ccccc21 [rasagiline, R-(+)-N-propargyl-1-aminoindan]
- CGI-I Total Mean ([1]; VISIT WEEK 2, N=2): 3.50
- CGI-I Total Median ([1]; VISIT WEEK 2, N=2): 3.0
- CGI-I Total Mean ([1]; VISIT WEEK 4, N=2): 3.50
- CGI-I Total Median ([1]; VISIT WEEK 4, N=2): 3.50
- CGI-I Total Mean ([1]; VISIT WEEK 8, N=1): 1.00
- CGI-I Total Median ([1]; VISIT WEEK 8, N=1): 4.00
- RLS symptoms on the CGI-I rating scale ([1]; by eight weeks, remaining subject): Very Much Improved
- Optimal Sleep (Absolute Change) Mean ([2]; N=1): 0.00
- Optimal Sleep (Absolute Change) Median ([2]; N=1): 0.00
- Optimal Sleep (Percent Change) Mean ([2]; N=1): 0.00%
- Optimal Sleep (Percent Change) Median ([2]; N=1): 0.00%
- Optimal Sleep Scale Mean ([2]; N=1): 1.00
- Optimal Sleep Scale Median ([2]; N=1): 1.00
- Sleep Quantity (Absolute Change) Mean ([2]; N=1): 0.00
- Sleep Quantity (Absolute Change) Median ([2]; N=1): 0.00
- Sleep Quantity (Percent Change) Mean ([2]; N=1): 0.00%
- Sleep Quantity (Percent Change) Median ([2]; N=1): 0.00%
- Sleep Quantity (raw score) Mean ([2]; N=1): 7.00
- Sleep Quantity (raw score) Median ([2]; N=1): 7.00
- Sleep Snoring (Percent Change) Mean ([2]; N=1): 0.00%
- Sleep Snoring (Percent Change) Median ([2]; N=1): 0.00%
- Short of Breath Scale Mean ([2]; N=2): 0.00
- Short of Breath Scale Median ([2]; N=2): 0.00
- Sleep Adequacy (Absolute Change) Mean ([2]; N=2): 15.00
- Sleep Adequacy (Absolute Change) Median ([2]; N=2): 15.00
- Sleep Adequacy (Percent Change) Mean ([2]; N=2): 25.00%
- Sleep Adequacy (Percent Change) Median ([2]; N=2): 25.00%
- Sleep Adequacy Mean ([2]; N=2): 55.00
- Sleep Adequacy Median ([2]; N=2): 55.00
- Sleep Disturbance (Absolute Change) Mean ([2]; N=2): −7.50
- Sleep Disturbance (Absolute Change) Median ([2]; N=2): −7.50
- Sleep Disturbance (Percent Change) Mean ([2]; N=2): −20.00%
- Sleep Disturbance (Percent Change) Median ([2]; N=2): −20.00%
- Sleep Disturbance Scale Mean ([2]; N=2): 33.75
- Sleep Disturbance Scale Median ([2]; N=2): 33.75
- Sleep Problems Index I (Absolute Change) Mean ([2]; N=2): −6.67
- Sleep Problems Index I (Absolute Change) Median ([2]; N=2): −6.67
- Sleep Problems Index I (Percent Change) Mean ([2]; N=2): −40.00%
- Sleep Problems Index I (Percent Change) Median ([2]; N=2): −40.00%
- Sleep Problems Index I Mean ([2]; N=2): 26.67
- Sleep Problems Index I Median ([2]; N=2): 26.67
- Sleep Problems Index II (Absolute Change) Mean ([2]; N=2): −6.67
- Sleep Problems Index II (Absolute Change) Median ([2]; N=2): −6.67
- Sleep Problems Index II (Percent Change) Mean ([2]; N=2): 24.00%
- Sleep Problems Index II (Percent Change) Median ([2]; N=2): −24.00%
- Sleep Problems Index II Mean ([2]; N=2): 33.89
- Sleep Problems Index II Median ([2]; N=2): 33.89
- Sleep Short of Breath (Absolute Change) Mean ([2]; N=2): 0.00
- Sleep Short of Breath (Absolute Change) Median ([2]; N=2): 0.00
- Sleep Snoring (Absolute Change) Mean ([2]; N=2): 0.00
- Sleep Snoring (Absolute Change) Median ([2]; N=2): 0.00
- Sleep Somnolence (Absolute Change) Mean ([2]; N=2): −0.00
- Sleep Somnolence (Absolute Change) Median ([2]; N=2): −0.00
- Sleep Somnolence (Percent Change) Mean ([2]; N=2): −20.00%
- Sleep Somnolence (Percent Change) Median ([2]; N=2): −20.00%
- Snoring Scale Mean ([2]; N=2): 40.00
- Snoring Scale Median ([2]; N=2): 40.00
- Somnolence Scale Mean ([2]; N=2): 40.00
- Somnolence Scale Median ([2]; N=2): 40.00
